Test results published in patent publication US10835513B2, “Methods and treatments for the learning and memory deficits associated with Noonan syndrome” (The Regents of the University of California, priority 2013, dated 2020).

Tested on: hippocampal slices from the AAV-PTPN11^D61G-infected mice
Assay: 5 TBS-induced CA1 Schaffer collateral LTP, extracellular field recordings, bath-applied SL327
Type: cell-based
Details: SL327 1 μM applied 1 hr before LTP induction and kept in bath
From the text: FIG. 3 are graphs showing that PTPN11^D61G overexpression induces learning and memory and LTP deficits that can be reversed by MEK inhibition. Panel a) AAV5-PTPN11^D61G infection results in overexpression of SHP2^D61G. […] Panel b) PTPN11^D61G overexpression increases basal Erk activity (phospho-Erk level) and prevents further Eric activation in response to TBS. Left, Representative immunoblot showing p-Erk (upper) and total Eric (lower) in PTPN11^D61G-expressing slices and GFP-expressing slices. Slices were prepared 1 hr after TBS. […] Panels c and d) MEK inhibitor SL327 (CAS 305350-87-2) reverses spatial memory deficits in PTPN11^D61G-overexpressing mice. […]
For extracellular recordings of field excitatory postsynaptic potentials (fEPSP), sagittal slices (400 μm) were prepared with a vibratome (VT1000S, Leica) in ice-cold artificial cerebrospinal fluid (ACSF). […] Recording was performed in a submerged chamber perfused with ACSF (32° C.). fEPSPs were recorded with platinum-iridium electrodes placed in the CA1 stratum radiatum. […] Baseline responses were measured with stimulation (0.017 Hz, 0.1 ms pulse duration) at an intensity (typically 20-30 μA) that evoked a response that was approximately one third of the maximum evoked response. […] Initial fEPSP slopes were measured and normalized to the average of baseline (Clampfit 10.2).

N#C/C(=C(/N)Sc1ccc(N)cc1)c1ccccc1C(F)(F)F [SL327]
Average % fEPSP changes (last 10 minutes of recording), 5 TBS-induced LTP (GFP slices): 146.2±4.37%
Average % fEPSP changes (last 10 minutes of recording), 5 TBS-induced LTP (PTPN11^D61G slices): 146.1±4.36%
